Here are results for 1 compound from ChEMBL document CHEMBL3044947, “Isolation of an insecticidal compound oxalicine B from Penicillium sp. TAMA 71 and confirmation of its chemical structure by X-ray crystallographic analysis” (2007).

For test [1], the system named is Frankliniella occidentalis. As to the kind of experiment: Antifeedant activity against Frankliniella occidentalis (western flower thrips) at 500 ppm. The format is functional, organism-based.
Test [2] relates to Myzus persicae. As to the kind of experiment: Insecticidal activity against Myzus persicae (green peach aphid) assessed as insect mortality at 100 ppm. It is filed as functional.
Test [3] concerns Frankliniella occidentalis. In words: Insecticidal activity against Frankliniella occidentalis (western flower thrips) assessed as insect mortality at 500 ppm. The format is functional.
Test [4] has as its system Myzus persicae. In words: Insecticidal activity against Myzus persicae (green peach aphid) assessed as insect mortality at 200 ppm. The format is functional.
Test [5] relates to Podosphaera fuliginea. In words: Fungicidal activity against Podosphaera fuliginea at 500 ppm. It is filed as functional, organism-based.
For test [6], the system named is Botrytis cinerea. As to the kind of experiment: Fungicidal activity against Botryotinia fuckeliana at 500 ppm. It is filed as functional, organism-based.
Test [7] concerns Tetranychus urticae. In words: Miticidal activity against Tetranychus urticae (two-spotted spider mite) assessed as insect mortality at 500 ppm. It is filed as functional, organism-based.
Test [8] deals with Plutella xylostella. In words: Insecticidal activity against Plutella xylostella (diamondback moth) assessed as insect mortality at 500 ppm. It is filed as functional, organism-based.
Test [9] relates to Bemisia argentifolii. As to the kind of experiment: Insecticidal activity against Bemisia argentifolii assessed as insect mortality at 500 ppm. It is filed as functional, organism-based.

Active and inactive are the calls of the source. No cut-off for these calls is given here.

As for `C=C(C)[C@]1(O)CC[C@]2(C)[C@H](CC=C(C)[C@]23Oc2cc(-c4cccnc4)oc(=O)c2[C@@H]3O)[C@@]12CCC(=O)OC2` [OXALICINE B], the outcome in test [1], in [5], in [6], in [7], in test [8] and in [9] was inactive. Further, in [2], the mortality at 100 ppm was determined as 82%. In test [3], the mortality at 500 ppm was determined as 32%. Moreover, the mortality at 200 ppm in test [4] stood at 87%.
